# From ChEMBL document CHEMBL4387705, “Synthesis of new arylsulfonylspiroimidazolidine-2',4'-diones and study of their effect on stimulation of insulin release from MIN6 cell line, inhibition of human aldose reductase, sorbitol accumulations in various tissues and oxidative stress” (Eur J Med Chem, 2019)
# Tests used:
# [1] = Antioxidant activity assessed as DPPH radical scavenging activity at 50 uM incubated for 30 mins under dark condition by spectrophotometry; type: functional
# [2] = Cytotoxicity against HEK293 cells assessed as reduction in cell viability at 50 uM incubated for 48 hrs by MTT assay relative to control; type: cell-based; settings: human, read-out: INH
# [3] = Cytotoxicity against mouse MIN6 cells assessed as cell viability at 400 uM incubated for 24 hrs by MTT assay; type: cell-based; settings: read-out: Activity
# MIN6 [4] = assay: Cytotoxicity against mouse MIN6 cells assessed as reduction in cell viability up to 200 uM incubated for 24 hrs by MTT assay; type: cell-based; settings: min6, 24 h
# [5] = molecular target: Aldo-keto reductase family 1 member B1 (Rattus norvegicus) (UniProt P07943); assay: (§1) Inhibition of ALR2 in rat erythrocytes assessed as reduction in sorbitol accumulation incubated for 3 hrs in presence of 28 mM glucose by gas chromatographic analysis relative to control; type: cell-based
# [6] = molecular target: T1, Aldo-keto reductase family 1 member B1 (Rattus norvegicus, UniProt P07943); assay: as §1; type: cell-based
# [7] = Cytotoxicity against HEK293 cells assessed as reduction in cell viability at 25 uM incubated for 48 hrs by MTT assay relative to control; type: cell-based; settings: human, read-out: INH
# MIN6 [8] = assay: Antidiabetic activity in mouse MIN6 cells after 35 passages assessed as increase in insulin secretion at 100 uM in presence of 25 mM glucose by ELISA relative to control; type: functional
# [9] = molecular target: Aldo-keto reductase family 1 member B1 (Rattus norvegicus) (UniProt P07943); assay: (§2) Inhibition of ALR2 in rat sciatic nerve assessed as reduction in sorbitol accumulation incubated for 3 hrs in presence of 28 mM glucose by gas chromatographic analysis
# [10] = molecular target: T1, Aldo-keto reductase family 1 member B1; assay: as §2
# MIN6 [11] = assay: Effect on cell morphology in mouse MIN6 cells assessed as cell viability up to 400 uM incubated for 24 hrs; type: cell-based; settings: min6, 24 h
# [12] = Cytotoxicity against HEK293 cells assessed as reduction in cell viability at 200 uM incubated for 48 hrs by MTT assay relative to control; type: cell-based; settings: human, read-out: INH
# [13] = molecular target: Aldo-keto reductase family 1 member B1 (Homo sapiens, UniProt P15121); assay: Inhibition of human recombinant ALR2 expressed in Escherichia coli using DL-glyceraldehyde as substrate and NADPH preincubated for 5 mins followed by substrate addition and measured after 30 mins at 2 mins interval by spectrophotometry relative to control
# [14] = Antioxidant activity assessed as DPPH radical scavenging activity at 100 uM incubated for 30 mins under dark condition by spectrophotometry; type: functional
# [15] = Antioxidant activity assessed as DPPH radical scavenging activity at 10 uM incubated for 30 mins under dark condition by spectrophotometry; type: functional
# [16] = Cytotoxicity against HEK293 cells assessed as reduction in cell viability at 100 uM incubated for 48 hrs by MTT assay relative to control; type: cell-based; settings: human, read-out: INH
# [17] = molecular target: Aldo-keto reductase family 1 member B1 (Rattus norvegicus) (UniProt P07943); assay: (§3) Inhibition of ALR2 in rat lens assessed as reduction in sorbitol accumulation incubated for 3 hrs in presence of 28 mM glucose by gas chromatographic analysis relative to control
# [18] = molecular target: T1, Aldo-keto reductase family 1 member B1; assay: as §3
# MIN6 [19] = assay: Antidiabetic activity in mouse MIN6 cells after 83 passages assessed as increase in insulin secretion at 100 uM in presence of 25 mM glucose by ELISA relative to control; type: functional
# [20] = molecular target: Aldo-keto reductase family 1 member A1 (Rattus norvegicus, UniProt P51635); assay: Inhibition of rat kidney ALR1 using DL-glyceraldehyde as substrate and NADPH preincubated for 5 mins followed by substrate addition and measured for 30 mins at 2 mins interval by spectrophotometry relative to control
# Sequence of Aldo-keto reductase family 1 member A1 (P51635 whole entry, looked up): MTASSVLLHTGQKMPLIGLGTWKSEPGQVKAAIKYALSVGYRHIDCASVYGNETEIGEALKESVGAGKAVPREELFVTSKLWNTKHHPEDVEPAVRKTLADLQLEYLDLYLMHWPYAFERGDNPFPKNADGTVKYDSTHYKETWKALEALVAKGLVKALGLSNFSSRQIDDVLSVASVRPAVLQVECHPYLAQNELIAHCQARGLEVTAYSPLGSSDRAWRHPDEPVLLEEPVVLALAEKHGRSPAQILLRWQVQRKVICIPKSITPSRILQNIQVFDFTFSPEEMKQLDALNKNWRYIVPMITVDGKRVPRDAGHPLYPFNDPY
# [21] = Selectivity ratio of IC50 for rat kidney ALR1 IC50 to IC50 for human recombinant ALR2
inhibition [5],IC50 [6] [µM],inhibition [9],IC50 [10] [µM],IC50 [13] [µM],inhibition [17],IC50 [18] [µM],SMILES,inhibition [1] [%],"cytotoxicity at 48 h, 50 µM [2] [%]","viability at 24 h, 400 µM [3] [%]",Activity (MIN6 [4]),"cytotoxicity at 48 h, 25 µM [7] [%]",Activity (MIN6 [8]) [%],Activity (MIN6 [11]),"cytotoxicity at 48 h, 200 µM [12] [%]",inhibition [14] [%],inhibition [15] [%],"cytotoxicity at 48 h, 100 µM [16] [%]",Activity (MIN6 [19]) [%],other results
Dose-dependent effect,–,Dose-dependent effect,–,–,Dose-dependent effect,–,O=C1NC2(CCCc3ccccc32)C(=O)N1S(=O)(=O)c1ccc(F)cc1 (stereo not drawn),–,26.1,81,Non-Toxic,11.4,111,Non-Toxic,36.5,2.51,–,31.9,–,–
Dose-dependent effect,–,Dose-dependent effect,–,40.2,Dose-dependent effect,–,O=C1NC2(CCCc3ccccc32)C(=O)N1S(=O)(=O)c1ccc(Cl)cc1 (stereo not drawn),–,16.1,81,Non-Toxic,12.7,145,Non-Toxic,23.3,8.44,–,18.2,–,–
Dose-dependent effect,3.8,Dose-dependent effect,4.34,6.15,Dose-dependent effect,3.86,O=C1NC(=O)C2(CCCc3ccccc32)N1S(=O)(=O)c1ccc(Cl)cc1 (stereo not drawn),–,12.6,81,Non-Toxic,10.8,140,Non-Toxic,33.3,8.48,–,19.9,159,–
Dose-dependent effect,5.49,Dose-dependent effect,7.37,5.84,Dose-dependent effect,6.25,O=C1NC(=O)C2(CCCc3ccccc32)N1S(=O)(=O)c1ccc(F)cc1 (stereo not drawn),–,18.9,81,Non-Toxic,11.9,250,Non-Toxic,36.3,2.52,–,25.1,164,–
Dose-dependent effect,–,Dose-dependent effect,–,34.5,Dose-dependent effect,–,O=C1NC(=O)C2(CCCc3ccccc32)N1S(=O)(=O)c1ccc([N+](=O)[O-])cc1 (stereo not drawn),77.3,36,81,Non-Toxic,23.6,145,Non-Toxic,53.4,87.6,70.5,39.2,–,–
Dose-dependent effect,1.34,Dose-dependent effect,1.33,5.02,Dose-dependent effect,1.15,Cc1ccc(S(=O)(=O)N2C(=O)NC(=O)C23CCCc2ccccc23)cc1 (stereo not drawn),37.5,22.9,81,Non-Toxic,13.9,308,Non-Toxic,32,42.4,33.3,22.6,222,–
Dose-dependent effect,2.79,Dose-dependent effect,2.72,5.72,Dose-dependent effect,2.5,O=C1NC(=O)C2(CCCc3ccccc32)N1S(=O)(=O)c1ccc(Br)cc1 (stereo not drawn),–,18.8,81,Non-Toxic,12.8,210,Non-Toxic,25.8,1.59,–,19.4,160,IC50 [20]: 41.4 µM; Ratio IC50 [21]: 7.23
Dose-dependent effect,11.1,Dose-dependent effect,10.4,10.8,Dose-dependent effect,10.9,O=C1NC2(CCCc3ccccc32)C(=O)N1S(=O)(=O)c1ccc(Br)cc1 (stereo not drawn),–,18.9,81,Non-Toxic,16.9,165,Non-Toxic,39.3,1.55,–,21.1,–,IC50 [20]: 44.1 µM; Ratio IC50 [21]: 4.07

# Further lines, the compound ahead of its results:
SMILES,inhibition [5],IC50 [6] [µM],inhibition [9],IC50 [10] [µM],IC50 [13] [µM],inhibition [17],IC50 [18] [µM],inhibition [1] [%],"cytotoxicity at 48 h, 50 µM [2] [%]","viability at 24 h, 400 µM [3] [%]",Activity (MIN6 [4]),"cytotoxicity at 48 h, 25 µM [7] [%]",Activity (MIN6 [8]) [%],Activity (MIN6 [11]),"cytotoxicity at 48 h, 200 µM [12] [%]",inhibition [14] [%],inhibition [15] [%],"cytotoxicity at 48 h, 100 µM [16] [%]",Activity (MIN6 [19]) [%],other results
Cc1ccc(S(=O)(=O)N2C(=O)NC3(CCCc4ccccc43)C2=O)cc1 (stereo not drawn),Dose-dependent effect,1.7,Dose-dependent effect,1.72,1.8,Dose-dependent effect,1.56,37.3,19.1,81,Non-Toxic,18.2,275,Non-Toxic,21.5,42.4,23.2,20.2,177,–
O=C1NC2(CCCc3ccccc32)C(=O)N1S(=O)(=O)c1ccc([N+](=O)[O-])cc1 (stereo not drawn),Dose-dependent effect,–,Dose-dependent effect,–,–,Dose-dependent effect,–,67.3,14.2,81,Non-Toxic,9.37,121,Non-Toxic,28.4,77.6,44.8,19.2,–,–
CC(/C=C1\SC(=S)N(CC(=O)O)C1=O)=C\c1ccccc1,–,–,–,–,–,–,–,–,12,–,–,10.3,–,–,18.3,–,–,13.7,–,–
CC(=O)c1ccc(S(=O)(=O)N2C(=O)NC3(CCCc4ccccc43)C2=O)cc1 (stereo not drawn),Dose-dependent effect,25.7,Dose-dependent effect,22.7,37.7,Dose-dependent effect,34.8,39.8,24.4,81,Non-Toxic,17.5,118,Non-Toxic,55.5,75.3,25.1,42,–,–
COc1ccc(S(=O)(=O)N2C(=O)NC3(CCCc4ccccc43)C2=O)cc1 (stereo not drawn),Dose-dependent effect,20.4,Dose-dependent effect,19.4,11.7,Dose-dependent effect,15.8,45.3,13.6,81,Non-Toxic,15.4,142,Non-Toxic,26.6,66.9,31.6,18.5,–,IC50 [20]: 25.6 µM; Ratio IC50 [21]: 2.2
Cc1c(C)c2c(c(C)c1O)CCC(C)(C(=O)O)O2 (stereo not drawn),–,–,–,–,–,–,–,84.5,–,–,–,–,–,–,–,94.2,82.5,–,–,–
